Experimental data as given in US9925130B2, “Composition with zinc amino acid/trimethylglycine halide precursors” (Colgate-Palmolive Company, priority 2012, dated 2018).

Columns and labels:
C. minutissimum = test: Zone of inhibition test on TSA plates; assay type: cell-based; details: Table 3, sample type not given
Experimental: (§1) A zone of inhibition test is conducted on several materials: zinc oxide and amino acid hydrohalide alone and a mixture formed from zinc oxide and amino acid hydrohalide. The method involves making a lawn of freshly prepared bacterial culture on TSA (trypticase soy agar) plates. Sterile filter paper discs are seeded with 20 μl of test sample (supernatant or mixture). Sample-coated filter paper discs are air dried and applied onto the bacterial lawn on TSA plates. Plates are incubated for 20 hours at 37° C.
Similar antibacterial efficacy is seen when tetrabasic zinc chloride is used in place of zinc oxide as the source of zinc ions.

S. aureus = test: Zone of inhibition test on TSA plates; assay type: cell-based
Experimental: as §1

S. epider. = test: Zone of inhibition test on TSA plates; assay type: cell-based; details: 20 h 37° C.
Experimental: as §1

C. xerosis = test: Zone of inhibition test on TSA plates; assay type: cell-based; details: 20 h 37° C.
Experimental: as §1

[1] = target: Bovine Serum Albumin (BSA) (Bos taurus, UniProt P02769); test: Flocculation of ZLC in the presence of protein (BSA): turbidity and pH; assay type: physicochemical; details: for observation / pH / Turbidity (NTU): ZLC about 15 mg/ml, 5 hours 37° C.
Bovine Serum Albumin (BSA), sequence (P02769 25-607): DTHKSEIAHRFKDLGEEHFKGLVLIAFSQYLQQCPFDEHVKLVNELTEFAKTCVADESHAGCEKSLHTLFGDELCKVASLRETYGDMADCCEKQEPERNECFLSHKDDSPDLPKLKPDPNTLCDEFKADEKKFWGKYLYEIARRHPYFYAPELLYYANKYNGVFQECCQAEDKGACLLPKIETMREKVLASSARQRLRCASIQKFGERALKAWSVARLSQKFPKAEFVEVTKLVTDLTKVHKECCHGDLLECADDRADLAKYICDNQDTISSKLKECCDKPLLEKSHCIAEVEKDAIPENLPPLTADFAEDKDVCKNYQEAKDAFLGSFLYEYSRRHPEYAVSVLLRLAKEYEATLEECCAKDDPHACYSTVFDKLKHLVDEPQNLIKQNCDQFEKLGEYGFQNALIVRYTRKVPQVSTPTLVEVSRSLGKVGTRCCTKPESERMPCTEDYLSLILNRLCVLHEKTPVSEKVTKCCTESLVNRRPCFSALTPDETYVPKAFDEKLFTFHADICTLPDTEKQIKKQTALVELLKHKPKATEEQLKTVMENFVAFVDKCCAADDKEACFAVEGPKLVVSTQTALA
Experimental: Turbidity and pH of solutions are measured 5 hours after the mixtures were placed in a 37° C. oven, and the results are shown in Table 6.

[2] = Hydrolysis reaction: pH and turbidity of diluted ZLC solutions before and after aging; assay type: physicochemical; details: for pH after aging / turbidity after aging (NTU): 37° C. over 5 hours
Experimental: A 185 mg/ml solution of ZLC is prepared and diluted several-fold and aged in a 37° C. oven over 5 hours for turbidity studies. […] Turbidity of the solutions is measured using a nephelometer, results being given in nephelometric turbidity units (NTU).
The precipitates formed in the 8×, 16× and 32× diluted solutions are collected by centrifugation and identified as crystalline ZnO by PXRD. From the supernatant, a single crystal is grown and shown by X-ray diffraction to be Lysine Monohydrochloride Dihydrate (Lysine.HCl.2H2O).

[3] = Solubilization of zinc: free Zn2+ in supernatant by atomic absorption; assay type: physicochemical; details: dispersed in water, equilibrated overnight
Text: Ingredients are dispersed in water, equilibrated overnight, and the supernatant analyzed for free Zn^2+ by atomic absorption.

[4] = sample 1: DI water, 0% BSA, pH 6.4
[5] = sample 3: 1% BSA, pH adjusted to 5.1

In the case of `N=C(N)NCCC[C@H](N)C(=O)O` [Arginine 4%, arginine], the “Zone of Inhibition” value (C. minutissimum) is reported as 0 mm and the “Zone of Inhibition” value (S. aureus; Table 3, sample type not given) is reported as 0 mm.
With `NCCCC[C@H](N)C(=O)O` [Lysine 4%, lysine] the “Zone of Inhibition” value (C. minutissimum) was 0 mm and the “Zone of Inhibition” value (S. aureus; Table 3, sample type not given) was 0 mm.
With `Cl.NCCCC[C@H](N)C(=O)O` [Lysine-HCl 23.2%, lysine hydrochloride] the “Zone of Inhibition” value (C. minutissimum) was 0 mm, the “Zone of Inhibition” value (S. aureus; Dry Sample, As is, 20 h 37° C.) was 0 mm and the “Zone of Inhibition” value (S. aureus; Table 3, sample type not given) was 0 mm. The “Zone of Inhibition” value (S. aureus; Wet Sample, As is, 20 h 37° C.) was 0 mm, the “Zone of Inhibition” value (S. epider.; Dry Sample, As is) was 0 mm and the “Zone of Inhibition” value (S. epider.; Wet Sample, As is) was 0 mm. The “Zone of Inhibition” value (C. xerosis; Dry Sample, As is) was 0 mm and the “Zone of Inhibition” value (C. xerosis; Wet Sample, As is) was 0 mm.
In the case of `[Cl-].[Cl-].[OH-].[OH-].[OH-].[OH-].[OH-].[OH-].[OH-].[OH-].[Zn+2].[Zn+2].[Zn+2].[Zn+2].[Zn+2]` [TBZC (4%), Tetrabasic zinc chloride], the “Zone of Inhibition” value (S. aureus; Table 3, Mixture) is reported as 6 mm and the “Zone of Inhibition” value (S. aureus; Table 3, Supernat) is reported as 6 mm.
With `NCCCCC(N)C(=O)O.NCCCCC(N)C(=O)O.O.O.[Cl-].[Cl-].[Zn+2]` (centres unmarked) [ZLC, [Zn(Lysine)2Cl]^+Cl^−.2H2O] the flocculation of proteins ([1]; proteins such as BSA) was “ability to flocculate proteins”, the observation [1, 4] was “slightly cloudy” and the pH [1, 4] was 8. The “Turbidity (NTU)” value ([1]; sample 2: 1% BSA, pH 7.2) was greater than 1000 NTU, the observation ([1]; sample 2: 1% BSA, pH 7.2) was “precipitate” and the pH ([1]; sample 2: 1% BSA, pH 7.2) was 8.2. For the same compound, the “Turbidity (NTU)” value [1, 5] was greater than 1000 NTU, the observation [1, 5] was “precipitate” and the pH [1, 5] was 8. The “initial pH” value ([2]; 5.78 mg/ml) was 8, the pH after aging ([2]; 5.78 mg/ml) was 8 and the “turbidity after aging (NTU)” value ([2]; 5.78 mg/ml) was greater than 1000 NTU. For the same compound, the “initial pH” value ([2]; 11.56 mg/ml) was 7.8, the pH after aging ([2]; 11.56 mg/ml) was 7.8 and the “turbidity after aging (NTU)” value ([2]; 11.56 mg/ml) was greater than 1000 NTU. The “initial pH” value ([2]; 23.125 mg/ml) was 7.7, the “initial turbidity (NTU)” value ([2]; 23.125 mg/ml) was 0.7 NTU and the pH after aging ([2]; 23.125 mg/ml) was 7.7. The “initial pH” value ([2]; 46.25 mg/ml) was 7.4, the “initial turbidity (NTU)” value ([2]; 46.25 mg/ml) was 1.5 NTU and the pH after aging ([2]; 46.25 mg/ml) was 7.4. For the same compound, the “turbidity after aging (NTU)” value ([2]; 46.25 mg/ml) was 2.8 NTU, the “initial pH” value ([2]; 92.5 mg/ml) was 7 and the “initial turbidity (NTU)” value ([2]; 92.5 mg/ml) was 2.8 NTU. The pH after aging ([2]; 92.5 mg/ml) was 7, the “turbidity after aging (NTU)” value ([2]; 92.5 mg/ml) was 2.6 NTU and the “initial pH” value ([2]; 185 mg/ml) was 6.8. The “initial turbidity (NTU)” value ([2]; 185 mg/ml) was 4.7 NTU, the pH after aging ([2]; 185 mg/ml) was 6.8 and the “turbidity after aging (NTU)” value ([2]; 185 mg/ml) was 4.1 NTU. The “observation as the 185 mg/ml solution is diluted” value ([2]; diluted several-fold, 37° C.) was “white precipitate forms” and the “stability of the complex upon dilution” value ([2]; precipitates of 8×, 16×, 32× dilutions identified as crystalline ZnO by PXRD, Lysine.HCl.2H2O from supernatant) was “disassociates upon dilution, with consequent precipitation of zinc oxide”.
In the case of `[O]=[Zn]` [ZnO(4%), zinc oxide], the “Zone of Inhibition” value (S. aureus; Dry Sample, Mixture, 20 h 37° C.) is reported as 7 mm, the “Zone of Inhibition” value (S. aureus; Dry Sample, Supernatant, 20 h 37° C.) is reported as 0 mm and the “Zone of Inhibition” value (S. aureus; Wet Sample, Mixture, 20 h 37° C.) is reported as 7 mm. The “Zone of Inhibition” value (S. aureus; Wet Sample, Supernatant, 20 h 37° C.) was 0 mm, the “Zone of Inhibition” value (S. epider.; Dry Sample, Mixture) was 10 mm and the “Zone of Inhibition” value (S. epider.; Dry Sample, Supernatant) was 0 mm. The “Zone of Inhibition” value (S. epider.; Wet Sample, Mixture) was 12 mm, the “Zone of Inhibition” value (S. epider.; Wet Sample, Supernatant) was 0 mm and the “Zone of Inhibition” value (C. xerosis; Dry Sample, Mixture) was 0 mm. The “Zone of Inhibition” value (C. xerosis; Dry Sample, Supernatant) was 0 mm, the “Zone of Inhibition” value (C. xerosis; Wet Sample, Mixture) was 0 mm and the “Zone of Inhibition” value (C. xerosis; Wet Sample, Supernatant) was 0 mm. The “Free Zn” value [3] was 11 ppm.
